The values below come from article PMC7529893, “Structural basis for substrate recognition and chemical inhibition of oncogenic MAGE ubiquitin ligases” (Nature Communications, 2020).

The test concerns the target T1, MAGE-A11:PCF11 interaction (GST-MAGE-A11 and FAM-PCF11_4) (Homo sapiens, UniProt P43364).
T1 construct: GST-MAGE-A11 MHD (human MAGE-A11 MHD amino acid 218-429); made in house; host or cells: E. coli BL21(DE3)
T1 sequence (P43364 218-429): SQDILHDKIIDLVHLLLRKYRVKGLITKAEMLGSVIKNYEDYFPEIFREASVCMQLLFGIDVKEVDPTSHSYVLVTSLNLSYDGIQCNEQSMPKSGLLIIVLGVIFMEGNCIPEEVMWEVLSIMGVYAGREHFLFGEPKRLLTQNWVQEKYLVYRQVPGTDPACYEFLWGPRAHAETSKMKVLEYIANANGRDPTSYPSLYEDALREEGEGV
Briefly: TR-FRET primary / single point screen at 15 µM. The format is binding. As for the experimental part: The TR-FRET assay buffer with a formula of 50 mM Tris pH 7.5, 20 mM MgCl2, 0.1 mg/ml BSA and 1 mM DTT was freshly prepared before each experiment. All TR-FRET assays were performed in black 384-well plates with 20 µl/well assay volume in the TR-FRET assay buffer at room temperature (~25 °C). All peptides or compounds were solubilized in DMSO. To test the competitive activity of peptides or compounds against the interaction between GST-MAGE-A11 MHD and FAM-PCF11_4 peptide, 10 µl/well peptide or compound at specified concentration was dispensed into a black 384-well low volume plate, followed by 5 µl/well FAM-PCF11_4 (800 nM), 5 µl/well Tb-anti-GST (20 nM), and GST-MAGE-A11 MHD (20 nM). The assay components in each well was then mixed by shaking the plate on an IKA MTS 2/4 digital microtiter plate shaker (IKA Works; Wilmington, NC, USA) for 1 min. The plate was further centrifuged in an Eppendorf 5810 centrifuge with an A-4-62 swing-bucket rotor (Eppendorf AG, Hamburg, Germany) at 201 g for 30 s. The plate was then incubated for 90 min with a lid to avoid light exposure to the assay components. After incubation, the fluorescent emission signals at 520 nm and 490 nm channels of individual wells were measured with a PHERAstar FS plate reader (BMG Labtech; Durham, NC, USA) by using a 340 nm excitation filter, 100 µs delay time, and 200 µs integration time. The TR-FRET fluorescence emission ratio (TR-FRET signal) for each well was presented as 10,000 × 520 nm/490 nm, which was used directly for curve fitting, or further converted to %Inhibition based on the respective positive and negative controls. The graphic software GraphPad Prism 4.81 (GraphPad Software; La Jolla, CA, USA) was used to generate curves and derive IC50 values of tested peptides or compounds, if applicable. TR-FRET screen for identifying MAGE-A11 small molecule inhibitors was performed as follows. The primary one-concentration screening and subsequent 10 or 20-concentration dose-response tests were accomplished with an automated High Throughput Screening system (HighRes Biosolutions, Beverly, MA)[30]. In the primary screening, 15 µl/well FAM-PCF11_4 (267 nM) was first dispensed with a Multidrop Combi Reagent Dispenser (Thermo Fisher Scientific, Waltham, MA) to black 384-well low-volume assay plates. The plates were spun down with a Velocity11 VSpin microplate centrifuge (Agilent Technologies, Santa Clara, CA). In total, 30 nl/well of 10 mM compound/DMSO solutions, or DMSO alone, were transferred from compound plates (the St. Jude FDA drug and bioactive library, Drug-like library and Lead-like library) or a control plate to the assay plates with a Pin Tool (V&P Scientific, San Diego, CA). The compounds were arrayed in columns 3–12 and columns 15–24 of compound plates. The controls were arrayed in columns 1, 2, 13, and 14 of a compound plate. In all, 5 µl/well Tb-anti-GST (20 nM) and GST-MAGE-A11 (20 nM) or 5 µl/well Tb-anti-GST (20 nM) alone was then dispensed to selected wells with a Multidrop Combi Reagent Dispenser. The final assay volume was 20 µl/well. […] The final tested compound concentration was 15 µM. The final FAM-PCF11_4 concentration was 200 nM and the final Tb-anti-GST concentration was 5 nM. The final GST-MAGE-A11 concentration was 5 nM except for those selected positive control wells in which GST-MAGE-A11 was not presented. The plates were then shaken with a big bear shaker (Big Bear Automation, Santa Clara, California) and spun down with the Velocity11 VSpin microplate centrifuge for 20 s. The plates were then incubated at room temperature in a Liconic incubator (Liconic US, Woburn, MA) for 90 min. The TR-FRET signals for individual wells were measured with a PHERAstar FS plate reader. The %Inhibition of each tested inhibitor was calculated by using Eq. 1. Those inhibitors with %Inhibition >30% in the primary screening were selected for further dose-response test, along with additional newly synthesized compounds. […]
In general terms: In TR-FRET formats the signal depends on donor and acceptor labels being close together.

Setting [1] is: single point TR-FRET screening of 797 quinoline compounds against MAGE-A11:PCF11.
Where [2] appears, read: single point TR-FRET screening of quinoline compounds against MAGE-A11:PCF11, 15 µM.

For `Cc1ccc(S(=O)(=O)N2CCN(c3ccnc4cc(Cl)ccc34)CC2)cc1` [SJ000192519], the “percent inhibition (TR-FRET)” value under setting [1] is given as -38.6966. As for `Clc1ccc2c(NCCCCN(Cc3ccccc3)Cc3ccc[nH]3)ccnc2c1` [SJ000312692], the “percent inhibition (TR-FRET)” value under setting [1] is given as 28.2792. For the molecule `CCCN(CCCNc1ccnc2cc(C(F)(F)F)ccc12)Cc1cccnc1Br` [SJ000575180], the “percent inhibition (TR-FRET)” value under setting [2] was 5.164. Turning to `COc1ccc(F)c(CNCCCNc2c3ccc(Cl)cc3nc3ccc(OC)cc23)c1` [SJ000520998], under setting [1], the “percent inhibition (TR-FRET)” value is reported as -354.997.

For `CCOc1ccc2ncc(S(=O)(=O)c3ccccc3)c(N3CCN(c4ccccc4)CC3)c2c1` [SJ000083975], the “percent inhibition (TR-FRET)” value under setting [1] was -12.0602. Take `COC(=O)CCCCCNCCCNc1ccnc2cc(Cl)ccc12` [SJ000521021]: under setting [2], the “percent inhibition (TR-FRET)” value is 39.1213. For the molecule `CCCN(CCCNc1ccnc2cc(C(F)(F)F)ccc12)Cc1ccncc1` [SJ000361251], the “percent inhibition (TR-FRET)” value under setting [2] is 17.4864. As for `CCCN(CCCNc1c2ccc(Cl)cc2nc2ccc(OC)cc12)Cc1ccc[nH]1` [SJ000520923], the “percent inhibition (TR-FRET)” value under setting [1] is recorded as -271.048. Turning to `CCOC(=O)c1cnc2c(C)c(Cl)ccc2c1NCCCN1CCOCC1` [SJ000129912], the “percent inhibition (TR-FRET)” value under setting [2] is -23.261.

For `CCOc1ccc2ncc(C(=O)c3ccc(C)cc3)c(N3CCN(C)CC3)c2c1` [SJ000247254], the “percent inhibition (TR-FRET)” value under setting [1] is reported as -10.6078. The same measure, in the same setting: next, `Cc1ccc(C)c(N2CCN(c3c(S(=O)(=O)c4ccccc4)cnc4ccc(F)cc34)CC2)c1` [SJ000117083]: -15.3776; `Clc1ccc(CN(CCCCNc2ccnc3cc(Cl)ccc23)Cc2ccccc2)c(Cl)c1` [SJ000361207]: 35.4339. Still for that read-out and setting: next, `COc1cccc(CN(CCCCNc2ccnc3cc(Cl)ccc23)Cc2ccccc2)c1O` [SJ000312694]: 7.676; `COc1ccc2ncc(S(=O)(=O)c3ccc(C)cc3)c(N3CCN(c4ccccc4)CC3)c2c1` [SJ000117048]: -85.5732.

As to `CC(Nc1c2ccccc2nc2ccccc12)C(=O)NC(CC(N)=O)C(=O)O` (centres unmarked) [SJ000016433], under setting [1], the “percent inhibition (TR-FRET)” value came to 22.7145. As to `CCCN(CCCNc1ccnc2cc(Cl)ccc12)Cc1ncc[nH]1` [SJ000523008], the “percent inhibition (TR-FRET)” value under setting [2] was 4.165. On to `CCCN(CCCNc1ccnc2cc(C(F)(F)F)ccc12)CCOCc1ccccc1` [SJ000521011], for which the “percent inhibition (TR-FRET)” value under setting [2] worked out at 25.8235. As for `CN(C)c1cc(NC(=O)CNC(C)(C)CC(C)(C)C)c2ccccc2n1` [SJ000111678], under setting [1], the “percent inhibition (TR-FRET)” value came out at 10.6249.

Regarding `Fc1ccc(CN(CCCCNc2ccnc3cc(Cl)ccc23)Cc2ccccc2)cc1F` [SJ000361197], the “percent inhibition (TR-FRET)” value under setting [1] was 26.0931. Same read-out and setting: the figure for `COc1ccc(CNCCCNc2c3ccc(Cl)cc3nc3ccc(OC)cc23)cc1` [SJ000523033] is -338.862; for `COc1ccc2nc3cc(Cl)ccc3c(NCCCNCc3ccncc3)c2c1` [SJ000523023] it is -127.586. Consider `CCCN(CCCNc1ccnc2cc(C(F)(F)F)ccc12)Cc1cc(F)ccc1C` [SJ000521014], for which, under setting [2], the “percent inhibition (TR-FRET)” value stood at 20.6371. Same read-out and setting: the figure for `CCCN(CCCNc1ccnc2cc(C(F)(F)F)ccc12)Cc1cccc(OC(F)(F)F)c1` [SJ000520473] is 9.085.

Regarding `Clc1ccc2c(NCCCCN(Cc3ccccc3)Cc3ccc4ccccc4c3)ccnc2c1` [SJ000361205], the “percent inhibition (TR-FRET)” value under setting [1] amounted to 24.6356. The same measure, in the same setting: next, `CCCCCCN(CCCCNc1ccnc2cc(Cl)ccc12)Cc1ccccc1` [SJ000361212]: 23.5778; `CCOC(=O)c1cnc2ccc(C(=O)OC)cc2c1NCCN1CCOCC1` [SJ000127079]: -7.813. As for `CCCCCCN1CCC(Nc2ccnc3cc(Cl)ccc23)CC1` [SJ000523108], the “percent inhibition (TR-FRET)” value under setting [1] was determined as 29.2961. On to `O=S(=O)(c1ccccc1)c1cnc2ccc(F)cc2c1N1CCN(c2ccccc2)CC1` [SJ000083976], for which the “percent inhibition (TR-FRET)” value under setting [1] was -31.1045. The same measure, in the same setting: next, `O=[N+]([O-])c1ccccc1CN1CCC(Nc2ccnc3cc(Cl)ccc23)CC1` [SJ000523094]: -2.0257.

For the molecule `CCCN(CCCNc1c2ccc(Cl)cc2nc2ccc(OC)cc12)Cc1cccc(C#N)c1` [SJ000522739], under setting [2], the “percent inhibition (TR-FRET)” value was -94.5429.

For the molecule `Cc1cc(NC(=O)CN2CCN(C(=O)c3ccco3)CC2)c2ccccc2n1` [SJ000111679], the “percent inhibition (TR-FRET)” value under setting [1] is -1.072. On to `FC(F)(F)c1ccc2c(NCCCNCC3CCOC3)ccnc2c1` (centres unmarked) [SJ000521065], for which the “percent inhibition (TR-FRET)” value under setting [2] was determined as 15.5598.

Regarding `COc1ccc2ncc(C(=O)c3ccccc3)c(N3CCN(C)CC3)c2c1` [SJ000247245], the “percent inhibition (TR-FRET)” value under setting [1] is listed as -2.393. For the molecule `CCCN(CCCNc1ccnc2cc(C(F)(F)F)ccc12)Cc1ccc(C)s1` [SJ000361258], under setting [2], the “percent inhibition (TR-FRET)” value is reported as 19.0825. For `CCC(C)CNCCCNc1c2ccc(Cl)cc2nc2ccc(OC)cc12` (centres unmarked) [SJ000361093], the “percent inhibition (TR-FRET)” value under setting [1] was -451.494.

Take `Clc1ccc2c(NCCCN(Cc3ccccc3)CC3CC=CCC3)ccnc2c1` (centres unmarked) [SJ000311182]: the “percent inhibition (TR-FRET)” value under setting [2] is 16.0865. On to `CCN1CCN(c2c(S(=O)(=O)c3ccccc3)cnc3ccc(C)cc23)CC1` [SJ000083956], for which the “percent inhibition (TR-FRET)” value under setting [1] was -3.448. On the same count and under the same terms, the figure for `CCCN(CCCNc1c2ccc(Cl)cc2nc2ccc(OC)cc12)Cc1ccc(CC)cc1` [SJ000522972] is -105.076. Same read-out and setting: the figure for `CCCN(CCCNc1c2ccc(Cl)cc2nc2ccc(OC)cc12)CC1CCCCC1` [SJ000520938] is -163.904. For the molecule `FC(F)(F)c1ccc2c(NCCCNCc3nccs3)ccnc2c1` [SJ000521046], the “percent inhibition (TR-FRET)” value under setting [2] was 7.779.

Regarding `FC(F)(F)Oc1cccc(CN(CCCNc2ccnc3cc(Cl)ccc23)Cc2ccccc2)c1` [SJ000520464], the “percent inhibition (TR-FRET)” value under setting [2] was found to be 27.7788. Still for that read-out and setting: the figure for `CCCN(CCCNc1ccnc2cc(Cl)ccc12)Cc1ccccc1C(F)(F)F` [SJ000522745] is -38.0341; for `CCCN(CCCNc1ccnc2cc(Cl)ccc12)Cc1ccc2[nH]ccc2c1` [SJ000522746] it is 96.845.

Regarding `CCc1ccc2ncc(S(=O)(=O)c3ccc(OC)cc3)c(N3CCN(c4ccccc4)CC3)c2c1` [SJ000117056], the “percent inhibition (TR-FRET)” value under setting [1] is on record as -2.791. As to `Clc1ccc2c(NCCCNCc3ccc(Br)s3)ccnc2c1` [SJ000575193], the “percent inhibition (TR-FRET)” value under setting [2] turned out to be 15.3375. `Fc1cccc(CN(CCCCNc2ccnc3cc(Cl)ccc23)Cc2ccccc2)c1` [SJ000361199]: the “percent inhibition (TR-FRET)” value under setting [1] came out at 28.3389. In the case of `FC(F)(F)Oc1ccccc1CN(CCCNc1ccnc2cc(Cl)ccc12)Cc1ccccc1` [SJ000357599], the “percent inhibition (TR-FRET)” value under setting [2] was found to be 19.7634.
